The NIST ThermoML archive (doi:10.1021/je5002126)

Key:
[1] = xn = mol fraction of the nth substance listed; details: for electrical conductivity / viscosity / mass density: 101 kPa, Liquid; for electrical conductivity: Alternating current cell with electrodes; for viscosity: Concentric cylinders viscometry; for mass density: Vibrating tube method; for surface tension liquid-gas: Ring tensiometer
[2] = refractive index (Na D-line) (dimensionless); xn = mol fraction of the nth substance listed; details: 101 kPa, Liquid, Standard Abbe refractometry

CCCC[N+](CCCC)(CCCC)CCCC.[Cl-] [tetrabutylammonium chloride] + OCC(O)CO
Details	electrical conductivity, [1] [S/m]	mass density, [1] [kg/m3]	refractive index, [2]	surface tension liquid-gas, [1] [mN/m]	viscosity, [1] [mPa·s]
293.15 K, x1 = 0.167	0.0162	1040	1.4781	–	1100
293.15 K, x1 = 0.2	0.0192	1029	1.4776	–	950
293.15 K, x1 = 0.25	0.017	1014	1.4802	–	1170
303.15 K, x1 = 0.167	0.0307	1034	1.4754	47.1	541.3
303.15 K, x1 = 0.2	0.0358	1023	1.4747	46.7	476.1
303.15 K, x1 = 0.25	0.0309	1008	1.4774	46	580
313.15 K, x1 = 0.167	0.0492	1027	1.4726	46.2	261
313.15 K, x1 = 0.2	0.0525	1017	1.4718	45.9	225
313.15 K, x1 = 0.25	0.0485	1001	1.4745	44.9	293.3
323.15 K, x1 = 0.167	0.0788	1020	1.4697	45.5	137.3
323.15 K, x1 = 0.2	0.0863	1010	1.4687	44.9	115.7
323.15 K, x1 = 0.25	0.0781	995	1.4716	44.1	157
333.15 K, x1 = 0.167	0.114	1014	1.4668	45	78.4
333.15 K, x1 = 0.2	0.131	1004	1.4658	44.1	64.7
333.15 K, x1 = 0.25	0.117	988	1.4685	43.4	90.7
343.15 K, x1 = 0.167	0.141	1007	1.4638	44.2	47.6
343.15 K, x1 = 0.2	0.182	997	1.4626	43.5	41.9
343.15 K, x1 = 0.25	0.151	982	1.4652	42.7	56.7
353.15 K, x1 = 0.167	0.222	1000	1.4607	43.5	32
353.15 K, x1 = 0.2	0.264	991	1.4603	42.9	25
353.15 K, x1 = 0.25	0.24	976	1.462	41.9	36.7
